Source: patent US20210317092A1 (BAYER PHARMA AKTIENGESELLSCHAFT, priority 2016, published 2021)
pIC50: −log10 of the molar value. Like-named read-outs stand apart in the source and are kept apart here.

Molecular target: T1, human Bradykinin B1 receptor (Homo sapiens, UniProt P46663)
T1 construct: host or cells: CHO-K1
T1 sequence (P46663 1-353): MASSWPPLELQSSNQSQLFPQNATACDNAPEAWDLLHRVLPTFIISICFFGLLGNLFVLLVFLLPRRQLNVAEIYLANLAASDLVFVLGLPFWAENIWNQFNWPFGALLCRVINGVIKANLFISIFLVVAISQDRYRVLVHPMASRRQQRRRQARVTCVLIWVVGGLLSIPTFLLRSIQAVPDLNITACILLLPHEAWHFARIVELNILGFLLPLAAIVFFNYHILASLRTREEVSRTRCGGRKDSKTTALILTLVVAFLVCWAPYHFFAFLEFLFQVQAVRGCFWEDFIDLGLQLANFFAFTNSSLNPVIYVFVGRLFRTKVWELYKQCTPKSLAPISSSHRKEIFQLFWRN
Assay: Calcium flux Assay (FLIPR) with recombinant CHO-K1 cells expressing human Bradykinin B1 receptor, in presence (hB1 IC50) or absence (hB1 free IC50) of 0.1% BSA
Assay type: cell-based

[1] = in absence of 0.1% BSA, read-out: hB1 free IC50
[2] = in presence of 0.1% BSA, read-out: hB1 IC50

Compound | pIC50 [1] | pIC50 [2]
O=C(Nc1ccc(-n2ccc(C(F)(F)F)n2)c(-c2nnn[nH]2)c1)C1(c2ccc(F)c(F)c2)CC1 [Example 355, 1-(3,4-Difluorophenyl)-N-{3-(1H-tetrazol-5-yl)-4-[3-(trifluoromethyl)-1H-pyrazol-1-yl]phenyl}cyclopro-panecarboxa-mide] | 5.73 | 
COc1ccc(-c2ccc(NC(=O)C3(c4cc(F)ccc4C)CC3)cc2-c2nnn[nH]2)cc1OC [Example 255, N-[3′,4′-dimethoxy-2-(1H-tetrazol-5-yl)biphenyl-4-yl]-1-(5-fluoro-2-methylphenyl)cy-clopropanecar-boxamide] | 6.15 | 6.34
O=C(Nc1cnc(-c2cnn(C(F)F)c2)c(-c2nnn[nH]2)c1)C1(c2ccc(C(F)(F)F)cc2F)CC1 [Example 296, N-{6-[1-(difluoromethyl)-1H-pyrazol-4-yl]-5-(1H-tetrazol-5-yl)pyridin-3-yl}-1-[2-fluoro-4-(trifluoromethyl)phenyl]cyclopro-panecarboxamide] | 5.76 | 
O=C(Nc1ccc(-c2cnc(C(F)(F)F)nc2)c(-c2nnn[nH]2)c1)C1(c2cccc(Cl)c2F)CC1 [Example 197, 1-(3-chloro-2-fluorophenyl)-N-{3-(1H-tetrazol-5-yl)-4-[2-(trifluoromethyl)pyrimidin-5-yl]phenyl} cyclopropane-carboxamide] | 6.31 | 6.00
COc1cc(C2(C(=O)Nc3ccc(-c4ccc(OC)c(OC)c4)c(-c4nnn[nH]4)c3)CC2)ccc1F [Example 33, N-[3′,4′-dimethoxy-2-(1H-tetrazol-5-yl)biphenyl-4-yl]-1-(4-fluoro-3-methoxyphenyl) cyclopropane-carboxamide] | 6.55 | 6.62
COc1ccc(-c2ccc(NC(=O)C3(c4cccc(F)c4C)CC3)cc2-c2nnn[nH]2)cc1OC [Example 257, N-[3′,4′-dimethoxy-2-(1H-tetrazol-5-yl)biphenyl-4-yl]-1-(3-fluoro-2-methylphenyl)cy-clopropanecar-boxamide] |  | 6.04
COc1ccc(-c2ccc(NC(=O)C3(c4cccc(F)c4Cl)CC3)cc2-c2nnn[nH]2)cc1OC [Example 49, 1-(2-chloro-3-fluorophenyl)-N-[3′,4′-dimethoxy-2-(1H-tetrazol-5-yl)biphenyl-4-yl]cyclopropane carboxamide] |  | 6.67
COc1ccc(F)c(C2(C(=O)Nc3ccc(-c4ccc(OC)c(OC)c4)c(-c4nnn[nH]4)c3)CC2)c1 [Example 31, N-[3′,4′-dimethoxy-2-(1H-tetrazol-5-yl)biphenyl-4-yl]-1-(2-fluoro-5-methoxyphenyl) cyclopropane-carboxamide] |  | 6.67
Cc1ccc(C2(C(=O)Nc3ccc(-n4ccc(C(F)(F)F)n4)c(-c4nnn[nH]4)c3)CC2)c(F)c1 [Example 366, 1-(2-Fluoro-4-methylphenyl)-N-{3-(1H-tetrazol-5-yl)-4-[3-(trifluoromethyl)-1H-pyrazol-1-yl]phenyl}cyclopro-panecarboxa-mide] | 7.03 | 
COc1cc(-c2ccc(NC(=O)C3(c4cccc(Cl)c4)CC3)cc2-c2nnn[nH]2)cc(C(F)(F)F)n1 [Example 199, 1-(3-chlorophenyl)-N-{4-[2-methoxy-6-(trifluoromethyl)pyridin-4-yl]-3-(1H-tetrazol-5-yl)phenyl} cyclopropane-carboxamide] | 5.80 | 5.62
O=C(Nc1ccc(-c2ccc(C(F)(F)F)nc2)c(-c2nnn[nH]2)c1)C1(c2ccc(C(F)(F)F)c(F)c2)CC1 [Example 288, 1-[3-fluoro-4-(trifluoromethyl)phenyl]-N-{3-(1H-tetrazol-5-yl)-4-[6-(trifluoromethyl)pyridin-3-yl]phenyl}cyclopro-panecarboxa-mide] | 8.17 | 
O=C(Nc1cc(Cl)c(-c2ccc(C(F)(F)F)nc2)c(-c2nnn[nH]2)c1)C1(c2cccc(Cl)c2)CC1 [Example 302, 1-(3-chlorophenyl)-N-{3-chloro-5-(1H-tetrazol-5-yl)-4-[6-(trifluoromethyl)pyridin-3-yl]phenyl}cyclopro-panecarboxa-mide] | 7.36 | 
Cc1ccc(C2(C(=O)Nc3ccc(-n4cc(C(C)C)cn4)c(-c4nnn[nH]4)c3)CC2)c(F)c1 [Example 398, 1-(2-fluoro-4-methylphenyl)-N-[4-(4-isopropyl-1H-pyrazol-1-yl)-3-(1H-tetrazol-5-yl)phenyl]cyclopro-panecarboxa-mide] | 7.69 | 
COc1ccc(-c2ccc(NC(=O)C3(C4CCC(C)CC4)CC3)cc2-c2nnn[nH]2)cc1OC (single isomer, unassigned) [Example 52, N-[3′,4′-dimethoxy-2-(1H-tetrazol-5-yl)biphenyl-4-yl]-1-(4-methylcyclohexyl) cyclopropane carboxamide] |  | 6.91
COc1ccc(-c2ccc(NC(=O)C3(c4ccc(F)cc4)CC3(C)C)cc2-c2nnn[nH]2)cc1OC (stereo not shown) [Example 6] |  | 5.86
CS(=O)(=O)c1cncc(-c2ccc(NC(=O)C3(c4cccc(Cl)c4)CC3)cc2-c2nnn[nH]2)c1 [Example 319, 1-(3-Chlorophenyl)-N-{4-[5-(methylsulfonyl)pyridin-3-yl]-3-(1H-tetrazol-5-yl)phenyl}cyclopro-panecarboxa-mide] | 6.36 | 6.28
CCC1CCN(c2ccc(NC(=O)C3(c4ccc(C(F)(F)F)cc4F)CC3)cc2-c2nnn[nH]2)C1=O (stereo not shown) [Example 408, N-[4-(3-ethyl-2-oxopyrrolidin-1-yl)-3-(1H-tetrazol-5-yl)phenyl]-1-[2-fluoro-4-(trifluoromethyl)phenyl]cyclopro-panecarboxamide] | 6.88 | 
O=C(Nc1ccc(-c2ccc(OC(F)(F)F)cc2)c(-c2nnn[nH]2)c1)C1(c2cccc(Cl)c2)CC1 [Example 317, 1-(3-chlorophenyl)-N-[2-(1H-tetrazol-5-yl)-4′-(trifluoromethoxy)biphenyl-4-yl]cyclopropane-carboxamide] |  | 7.28
1-(3- chlorophenyl)- N-[3-(1H- tetrazol-5-yl)- 6′- (trifluoromethyl)- 2,3′-bipyridin- 5- yl]cyclopropane carboxamide [Example 217] | 6.29 | 
COc1ccc(-c2ccc(NC(=O)C3(c4ccccc4C)CC3)cc2-c2nnn[nH]2)cc1OC [Example 37, N-[3′,4′-dimethoxy-2-(1H-tetrazol-5-yl)biphenyl-4-yl]-1-(2-methylphenyl) cyclopropane-carboxamide] |  | 5.74
COc1cc(C2(C(=O)Nc3ccc(-c4ccnc(C(F)(F)F)c4)c(-c4nnn[nH]4)c3)CC2)ccc1F [Example 180, 1-(4-fluoro-3-methoxyphenyl)-N-{3-(1H-tetrazol-5-yl)-4-[2-(trifluoromethyl)pyridin-4-yl]phenyl} cyclopropane-carboxamide] | 6.11 | 
CN1CCN(c2ccc(-c3ccc(NC(=O)C4(c5cccc(Cl)c5)CC4)cc3-c3nnn[nH]3)cc2)CC1 [Example 330, 1-(3-chlorophenyl)-N-[4′-(4-methylpiperazin-1-yl)-2-(1H-tetrazol-5-yl)biphenyl-4-yl]cyclopropane carboxamide] | 6.85 | 6.80
COc1cncc(-c2ccc(NC(=O)C3(c4cccc(C(F)(F)F)c4)CC3)cc2-c2nnn[nH]2)c1 [Example 152, N-[4-(5-methoxypyridin-3-yl)-3-(1H-tetrazol-5-yl)phenyl]-1-[3-(trifluoromethyl)phenyl] cyclopropane-carboxamide] |  | 7.63
O=C(Nc1ccc(-n2cc(C(F)(F)F)cn2)c(-c2nnn[nH]2)c1)C1(c2ccc(OC(F)(F)F)cc2F)CC1 [Example 364, 1-[2-fluoro-4-(trifluoromethoxy)phenyl]-N-{3-(1H-tetrazol-5-yl)-4-[4-(trifluoromethyl)-1H-pyrazol-1-yl]phenyl}cyclopro-panecarboxa-mide] | 7.90 | 
O=C(Nc1ccc(-c2ccnc(C(F)(F)F)c2)c(-c2nnn[nH]2)c1)C1(c2ccc(F)c(Cl)c2)CC1 [Example 176, 1-(3-chloro-4-fluorophenyl)-N-{3-(1H-tetrazol-5-yl)-4-[2-(trifluoromethyl)pyridin-4-yl]phenyl} cyclopropane-carboxamide] | 6.59 | 
O=C(Nc1ccc(-c2ccnc(C(F)F)c2)c(-c2nnn[nH]2)c1)C1(c2ccc(F)c(F)c2)CC1 [Example 206, N-{4-[2-(difluoromethyl)pyridin-4-yl]-3-(1H-tetrazol-5-yl)phenyl}-1-(3,4-difluorophenyl) cyclopropane-carboxamide] | 6.31 | 
CCOc1ccc(-c2ccc(NC(=O)C3(c4cccc(Cl)c4)CCC3)cc2-c2nnn[nH]2)cn1 [Example 68, 1-(3-chlorophenyl)-N-[4-(6-ethoxypyridin-3-yl)-3-(1H-tetrazol-5-yl)phenyl] cyclobutane-carboxamide] |  | 5.85
COc1ccc(C2(C(=O)Nc3ccc(-c4ccc(OC)c(OC)c4)c(-c4nnn[nH]4)c3)CC2)cc1F [Example 24, N-[3′,4′-dimethoxy-2-(1H-tetrazol-5-yl)biphenyl-4-yl]-1-(3-fluoro-4-methoxyphenyl) cyclopropane-carboxamide] |  | 6.63
CC(C)c1cnn(-c2ccc(NC(=O)C3(c4cccc(Cl)c4)CC3)cc2-c2nnn[nH]2)c1 [Example 396, 1-(3-chlorophenyl)-N-[4-(4-isopropyl-1H-pyrazol-1-yl)-3-(1H-tetrazol-5-yl)phenyl]cyclopro-panecarboxa-mide] | 7.51 | 
O=C(Nc1ccc(-c2ccnc(C(F)(F)F)c2)c(-c2nnn[nH]2)c1)C1(c2cccc(Cl)c2F)CC1 [Example 172, 1-(3-chloro-2-fluorophenyl)-N-{3-(1H-tetrazol-5-yl)-4-[2-(trifluoromethyl)pyridin-4-yl]phenyl} cyclopropane-carboxamide] | 6.36 | 6.46
